According to the supplement of paper PMC8671470:
Structures can show the parent of a compound that is named as a salt.

tested on: myeloid leukemia patient primary cells Pat.7; assay: area under dose-response curve (viability, 1 nM-10 uM) (fraction (0-1)); higher = more sensitive; conditions: 72 h
Procedure: (§1)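 AUC (0–1, higher = more sensitive) of the 5-point dose–response (1 nM–10 µM, 72 h, CellTiter-Glo) in primary AML/CML patient mononuclear cells. 0.030103 is the floor for inactive compounds.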

Row | SMILES | area under dose-response curve
1 | O=C(c1c2ccccc2cc2ccccc12)N1CCC(N2CCC[C@@H](C(=O)N3CCOCC3)C2)CC1 | 0.312
2 | c1ccc2c(c1)SCc1c-2[nH]c2ccccc12 | 0.259
3 | CCC(CC#N)OC(=O)N[C@@H](C)c1cccc(NC(=O)Nc2ccc(-c3cnco3)c(OC)c2)c1 (stereo in doubt) [AVN-944] | 0.545
4 | Oc1ncc(F)c(O)n1 [5-fluorouracil] | 0.0322
5 | CN(C)CCNC(=O)c1cccn2c(=O)c3cc4ccccc4cc3nc12 [Bmh-21] | 0.318
6 | O=C(Cc1cccc(OC(F)(F)F)c1)Nc1ccc(CCCCc2nnc(NC(=O)Cc3ccccn3)s2)nn1 [CB-839] | 0.532
7 | O=C(/C=C/c1cccnc1)NCCCCC1CCN(C(=O)c2ccccc2)CC1 [Daporinad] | 0.995
8 | Nc1ccn([C@@H]2O[C@H](CO)[C@@H](O)C2(F)F)c(=O)n1 [Gemcitabine] | 0.135
9 | Clc1cc(Cl)c(OCC#CI)cc1Cl [Haloprogin] | 0.356
10 | O=c1[nH]c(=O)n([C@H]2C[C@H](O)[C@@H](CO)O2)cc1I [Idoxuridine] | < 0.0301
11 | NS(=O)(=O)c1ccc(S(=O)(=O)Nc2cccc3c(Cl)c[nH]c23)cc1 [Indisulam] | 0.228
12 | Cc1nnc(-c2ccc(N3CCC(Oc4ccccc4C(F)(F)F)CC3)nn2)s1 [MF-438] | 0.128
13 | CCCCCCCCCCCCC/C=C/[C@@H](O)[C@H](CO)N(C)C [N,N-Dimethylsphingosine] | 0.335
14 | Nc1nc(O)c2c(CCc3ccc(C(=O)N[C@@H](CCC(=O)O)C(=O)O)cc3)c[nH]c2n1 [Pemetrexed] | < 0.0301
15 | C=C1NC(=O)c2cc(CN(C)c3ccc(C(=O)N[C@@H](CCC(=O)O)C(=O)O)s3)ccc2N1 [Raltitrexed] | < 0.0301
16 | Fc1ccc(CNc2ncnc3ccc(F)cc23)cc1 [Spautin 1] | 0.154
17 | O=C(Oc1cccc(F)c1OC(=O)c1cccc(O)c1)c1cccc(O)c1 [WZB117] | 0.119
18 | CC(C)(Cc1ccccc1)NCC(O)c1ccc(O)c(NS(C)(=O)=O)c1 (stereo not given) [Zinterol hydrochloride] | < 0.0301

tested on: myeloid leukemia patient primary cells Pat.3; assay: as above; conditions: 72 h
Procedure: as §1

Row | SMILES | area under dose-response curve
19 | O=C(c1c2ccccc2cc2ccccc12)N1CCC(N2CCC[C@@H](C(=O)N3CCOCC3)C2)CC1 | < 0.0301
20 | c1ccc2c(c1)SCc1c-2[nH]c2ccccc12 | 0.37
21 | CCC(CC#N)OC(=O)N[C@@H](C)c1cccc(NC(=O)Nc2ccc(-c3cnco3)c(OC)c2)c1 (stereo in doubt) [AVN-944] | 0.44
22 | Oc1ncc(F)c(O)n1 [5-fluorouracil] | 0.0441
23 | CN(C)CCNC(=O)c1cccn2c(=O)c3cc4ccccc4cc3nc12 [Bmh-21] | 0.351
24 | O=C(Cc1cccc(OC(F)(F)F)c1)Nc1ccc(CCCCc2nnc(NC(=O)Cc3ccccn3)s2)nn1 [CB-839] | 0.702
25 | O=C(/C=C/c1cccnc1)NCCCCC1CCN(C(=O)c2ccccc2)CC1 [Daporinad] | 0.995
26 | Nc1ccn([C@@H]2O[C@H](CO)[C@@H](O)C2(F)F)c(=O)n1 [Gemcitabine] | 0.782
27 | Clc1cc(Cl)c(OCC#CI)cc1Cl [Haloprogin] | 0.388
28 | O=c1[nH]c(=O)n([C@H]2C[C@H](O)[C@@H](CO)O2)cc1I [Idoxuridine] | < 0.0301
29 | NS(=O)(=O)c1ccc(S(=O)(=O)Nc2cccc3c(Cl)c[nH]c23)cc1 [Indisulam] | 0.137
30 | CCCCCCCCCCCCC/C=C/[C@@H](O)[C@H](CO)N(C)C [N,N-Dimethylsphingosine] | 0.384
31 | Nc1nc(O)c2c(CCc3ccc(C(=O)N[C@@H](CCC(=O)O)C(=O)O)cc3)c[nH]c2n1 [Pemetrexed] | 0.196
32 | C=C1NC(=O)c2cc(CN(C)c3ccc(C(=O)N[C@@H](CCC(=O)O)C(=O)O)s3)ccc2N1 [Raltitrexed] | 0.324
33 | O=C(Oc1cccc(F)c1OC(=O)c1cccc(O)c1)c1cccc(O)c1 [WZB117] | 0.162

tested on: myeloid leukemia patient primary cells Pat.2; assay: as above; conditions: 72 h
Procedure: as §1

Row | SMILES | area under dose-response curve
34 | O=C(c1c2ccccc2cc2ccccc12)N1CCC(N2CCC[C@@H](C(=O)N3CCOCC3)C2)CC1 | < 0.0301
35 | c1ccc2c(c1)SCc1c-2[nH]c2ccccc12 | 0.142
36 | CCC(CC#N)OC(=O)N[C@@H](C)c1cccc(NC(=O)Nc2ccc(-c3cnco3)c(OC)c2)c1 (stereo in doubt) [AVN-944] | < 0.0301
37 | Oc1ncc(F)c(O)n1 [5-fluorouracil] | < 0.0301
38 | CN(C)CCNC(=O)c1cccn2c(=O)c3cc4ccccc4cc3nc12 [Bmh-21] | 0.0874
39 | O=C(Cc1cccc(OC(F)(F)F)c1)Nc1ccc(CCCCc2nnc(NC(=O)Cc3ccccn3)s2)nn1 [CB-839] | < 0.0301
40 | O=C(/C=C/c1cccnc1)NCCCCC1CCN(C(=O)c2ccccc2)CC1 [Daporinad] | 0.754
41 | Nc1ccn([C@@H]2O[C@H](CO)[C@@H](O)C2(F)F)c(=O)n1 [Gemcitabine] | 0.0848
42 | Clc1cc(Cl)c(OCC#CI)cc1Cl [Haloprogin] | 0.209
43 | O=c1[nH]c(=O)n([C@H]2C[C@H](O)[C@@H](CO)O2)cc1I [Idoxuridine] | < 0.0301
44 | NS(=O)(=O)c1ccc(S(=O)(=O)Nc2cccc3c(Cl)c[nH]c23)cc1 [Indisulam] | < 0.0301
45 | Cc1nnc(-c2ccc(N3CCC(Oc4ccccc4C(F)(F)F)CC3)nn2)s1 [MF-438] | < 0.0301
46 | CCCCCCCCCCCCC/C=C/[C@@H](O)[C@H](CO)N(C)C [N,N-Dimethylsphingosine] | 0.127
47 | Nc1nc(O)c2c(CCc3ccc(C(=O)N[C@@H](CCC(=O)O)C(=O)O)cc3)c[nH]c2n1 [Pemetrexed] | < 0.0301
48 | C=C1NC(=O)c2cc(CN(C)c3ccc(C(=O)N[C@@H](CCC(=O)O)C(=O)O)s3)ccc2N1 [Raltitrexed] | < 0.0301
49 | O=C(Oc1cccc(F)c1OC(=O)c1cccc(O)c1)c1cccc(O)c1 [WZB117] | 0.0336
50 | CC(C)(Cc1ccccc1)NCC(O)c1ccc(O)c(NS(C)(=O)=O)c1 (stereo not given) [Zinterol hydrochloride] | < 0.0301

tested on: myeloid leukemia patient primary cells Pat.12; assay: as above; conditions: 72 h
Procedure: as §1

Row | SMILES | area under dose-response curve
51 | O=C(c1c2ccccc2cc2ccccc12)N1CCC(N2CCC[C@@H](C(=O)N3CCOCC3)C2)CC1 | < 0.0301
52 | c1ccc2c(c1)SCc1c-2[nH]c2ccccc12 | 0.165
53 | CCC(CC#N)OC(=O)N[C@@H](C)c1cccc(NC(=O)Nc2ccc(-c3cnco3)c(OC)c2)c1 (stereo in doubt) [AVN-944] | < 0.0301
54 | Oc1ncc(F)c(O)n1 [5-fluorouracil] | < 0.0301
55 | CN(C)CCNC(=O)c1cccn2c(=O)c3cc4ccccc4cc3nc12 [Bmh-21] | 0.233
56 | O=C(Cc1cccc(OC(F)(F)F)c1)Nc1ccc(CCCCc2nnc(NC(=O)Cc3ccccn3)s2)nn1 [CB-839] | < 0.0301
57 | O=C(/C=C/c1cccnc1)NCCCCC1CCN(C(=O)c2ccccc2)CC1 [Daporinad] | 0.772
58 | Nc1ccn([C@@H]2O[C@H](CO)[C@@H](O)C2(F)F)c(=O)n1 [Gemcitabine] | < 0.0301
59 | Clc1cc(Cl)c(OCC#CI)cc1Cl [Haloprogin] | 0.204
60 | O=c1[nH]c(=O)n([C@H]2C[C@H](O)[C@@H](CO)O2)cc1I [Idoxuridine] | < 0.0301
61 | NS(=O)(=O)c1ccc(S(=O)(=O)Nc2cccc3c(Cl)c[nH]c23)cc1 [Indisulam] | < 0.0301
62 | Cc1nnc(-c2ccc(N3CCC(Oc4ccccc4C(F)(F)F)CC3)nn2)s1 [MF-438] | < 0.0301
63 | CCCCCCCCCCCCC/C=C/[C@@H](O)[C@H](CO)N(C)C [N,N-Dimethylsphingosine] | 0.0829
64 | Nc1nc(O)c2c(CCc3ccc(C(=O)N[C@@H](CCC(=O)O)C(=O)O)cc3)c[nH]c2n1 [Pemetrexed] | < 0.0301
65 | C=C1NC(=O)c2cc(CN(C)c3ccc(C(=O)N[C@@H](CCC(=O)O)C(=O)O)s3)ccc2N1 [Raltitrexed] | < 0.0301
66 | Fc1ccc(CNc2ncnc3ccc(F)cc23)cc1 [Spautin 1] | < 0.0301
67 | O=C(Oc1cccc(F)c1OC(=O)c1cccc(O)c1)c1cccc(O)c1 [WZB117] | 0.0633
68 | CC(C)(Cc1ccccc1)NCC(O)c1ccc(O)c(NS(C)(=O)=O)c1 (stereo not given) [Zinterol hydrochloride] | < 0.0301

tested on: myeloid leukemia patient primary cells Pat.9; assay: as above; conditions: 72 h
Procedure: as §1

Row | SMILES | area under dose-response curve
69 | O=C(c1c2ccccc2cc2ccccc12)N1CCC(N2CCC[C@@H](C(=O)N3CCOCC3)C2)CC1 | 0.327
70 | c1ccc2c(c1)SCc1c-2[nH]c2ccccc12 | 0.397
71 | CCC(CC#N)OC(=O)N[C@@H](C)c1cccc(NC(=O)Nc2ccc(-c3cnco3)c(OC)c2)c1 (stereo in doubt) [AVN-944] | 0.438
72 | Oc1ncc(F)c(O)n1 [5-fluorouracil] | 0.0717
73 | CN(C)CCNC(=O)c1cccn2c(=O)c3cc4ccccc4cc3nc12 [Bmh-21] | 0.396
74 | O=C(Cc1cccc(OC(F)(F)F)c1)Nc1ccc(CCCCc2nnc(NC(=O)Cc3ccccn3)s2)nn1 [CB-839] | 0.752
75 | O=C(/C=C/c1cccnc1)NCCCCC1CCN(C(=O)c2ccccc2)CC1 [Daporinad] | 0.995
76 | Nc1ccn([C@@H]2O[C@H](CO)[C@@H](O)C2(F)F)c(=O)n1 [Gemcitabine] | 0.956
77 | Clc1cc(Cl)c(OCC#CI)cc1Cl [Haloprogin] | 0.505
78 | O=c1[nH]c(=O)n([C@H]2C[C@H](O)[C@@H](CO)O2)cc1I [Idoxuridine] | < 0.0301
79 | NS(=O)(=O)c1ccc(S(=O)(=O)Nc2cccc3c(Cl)c[nH]c23)cc1 [Indisulam] | 0.227
80 | Cc1nnc(-c2ccc(N3CCC(Oc4ccccc4C(F)(F)F)CC3)nn2)s1 [MF-438] | < 0.0301
81 | CCCCCCCCCCCCC/C=C/[C@@H](O)[C@H](CO)N(C)C [N,N-Dimethylsphingosine] | 0.516
82 | Nc1nc(O)c2c(CCc3ccc(C(=O)N[C@@H](CCC(=O)O)C(=O)O)cc3)c[nH]c2n1 [Pemetrexed] | 0.0468
83 | C=C1NC(=O)c2cc(CN(C)c3ccc(C(=O)N[C@@H](CCC(=O)O)C(=O)O)s3)ccc2N1 [Raltitrexed] | < 0.0301
84 | Fc1ccc(CNc2ncnc3ccc(F)cc23)cc1 [Spautin 1] | 0.762
85 | O=C(Oc1cccc(F)c1OC(=O)c1cccc(O)c1)c1cccc(O)c1 [WZB117] | 0.223
86 | CC(C)(Cc1ccccc1)NCC(O)c1ccc(O)c(NS(C)(=O)=O)c1 (stereo not given) [Zinterol hydrochloride] | < 0.0301

tested on: myeloid leukemia patient primary cells Pat.5; assay: as above; conditions: 72 h
Procedure: as §1

Row | SMILES | area under dose-response curve
87 | O=C(c1c2ccccc2cc2ccccc12)N1CCC(N2CCC[C@@H](C(=O)N3CCOCC3)C2)CC1 | 0.309
88 | c1ccc2c(c1)SCc1c-2[nH]c2ccccc12 | 0.787
89 | CCC(CC#N)OC(=O)N[C@@H](C)c1cccc(NC(=O)Nc2ccc(-c3cnco3)c(OC)c2)c1 (stereo in doubt) [AVN-944] | 0.641
90 | Oc1ncc(F)c(O)n1 [5-fluorouracil] | 0.188
91 | CN(C)CCNC(=O)c1cccn2c(=O)c3cc4ccccc4cc3nc12 [Bmh-21] | 0.372
92 | O=C(Cc1cccc(OC(F)(F)F)c1)Nc1ccc(CCCCc2nnc(NC(=O)Cc3ccccn3)s2)nn1 [CB-839] | < 0.0301
93 | O=C(/C=C/c1cccnc1)NCCCCC1CCN(C(=O)c2ccccc2)CC1 [Daporinad] | 0.995
94 | Nc1ccn([C@@H]2O[C@H](CO)[C@@H](O)C2(F)F)c(=O)n1 [Gemcitabine] | 0.956
95 | Clc1cc(Cl)c(OCC#CI)cc1Cl [Haloprogin] | 0.677
96 | O=c1[nH]c(=O)n([C@H]2C[C@H](O)[C@@H](CO)O2)cc1I [Idoxuridine] | < 0.0301
97 | NS(=O)(=O)c1ccc(S(=O)(=O)Nc2cccc3c(Cl)c[nH]c23)cc1 [Indisulam] | 0.379
98 | Cc1nnc(-c2ccc(N3CCC(Oc4ccccc4C(F)(F)F)CC3)nn2)s1 [MF-438] | 0.232
99 | CCCCCCCCCCCCC/C=C/[C@@H](O)[C@H](CO)N(C)C [N,N-Dimethylsphingosine] | 0.664
100 | Nc1nc(O)c2c(CCc3ccc(C(=O)N[C@@H](CCC(=O)O)C(=O)O)cc3)c[nH]c2n1 [Pemetrexed] | 0.0877
